Test: solvent given as SMILES

`CCOC(=O)c1ccc(NC(=O)COc2cc3c4c([nH]c3c(C)c2C)C(=O)CCC4)cc1` gave an emission maximum (in C1COCCO1) of 408.59 nm, an emission maximum (in CC#N) of 422.39 nm and an emission maximum (in CCO) of 464.31 nm. For the same compound, the emission maximum (in CS(C)=O) was 426.09 nm, the emission maximum (in O) was 468.86 nm and the emission maximum (in c1ccccc1) was 411.45 nm.

With `COC(=O)CN1C(=O)c2cc3ccc(N(C)C)cc3cc2C1=O` the emission maximum (in C1CCOC1) was 510 nm, the emission maximum (in CC#N) was 549 nm and the emission maximum (in CC(C)=O) was 532 nm. For the same compound, the emission maximum (in CCO) was 584 nm, the emission maximum (in Cc1ccccc1) was 491 nm and the emission maximum (in ClC(Cl)Cl) was 509 nm.

`CN(C)c1ccc(/C=C/c2cnc3ccccc3n2)cc1` gave an emission maximum (in C1CCOC1) of 556 nm, an emission maximum (in CC#N) of 611 nm and an emission maximum (in CCCCCCC) of 468 nm. For the same compound, the emission maximum (in CS(C)=O) was 622 nm and the emission maximum (in ClCCl) was 570 nm.

With `COc1ccc(N(c2ccc(OC)cc2)c2cc(N(c3ccc(OC)cc3)c3ccc(OC)cc3)c3ccc4cc(C(C)(C)C)cc5ccc2c3c54)cc1` the emission maximum (in ClCCl) was 525 nm.

`Cc1ccc(-n2c3ccccc3c3cc(C(=C(C#N)C#N)c4ccccc4)ccc32)cc1` showed an emission maximum (in C1CCOC1) of 527 nm, an emission maximum (in CC#N) of 545 nm and an emission maximum (in CC(C)=O) of 567 nm. The emission maximum (in CCOC(C)=O) was 540 nm, the emission maximum (in CO) was 583 nm and the emission maximum (in CS(C)=O) was 591 nm. The emission maximum (in Cc1ccccc1) was 517 nm and the emission maximum (in ClC(Cl)Cl) was 546 nm.

Work on `COC(=O)c1ccc(C2=C3C(C)=CC(C)=[N+]3[B-](F)(F)n3c(/C=C/c4c[nH]cn4)cc(C)c32)cc1` yielded an emission maximum (in ClC(Cl)Cl) of 589 nm.

With `CN(C)c1ccc(C#Cc2ncnc3ccccc23)cc1` the emission maximum (in C1CCCCC1) was 444 nm, the emission maximum (in C1CCOC1) was 540 nm and the emission maximum (in CC#N) was 573 nm. The emission maximum (in CS(C)=O) was 583 nm and the emission maximum (in ClCCl) was 560 nm.

Work on `CC[n+]1c(C=C2C(=O)C(C=C3N(C)c4ccc(Cl)cc4C3(C)C)=C2[O-])[se]c2ccccc21` yielded an emission maximum (in CO) of 662 nm and an emission maximum (in ClC(Cl)Cl) of 677 nm.

`N#CSC1=CC2=C(c3ccccc3)c3ccc(SC#N)n3[B-](F)(F)[N+]2=C1N1CCOCC1` showed an emission maximum (in CC#N) of 585 nm, an emission maximum (in CCCCCC) of 588 nm and an emission maximum (in CCOC(C)=O) of 589 nm. For the same compound, the emission maximum (in CO) was 583 nm and the emission maximum (in ClCCl) was 594 nm.

Work on `CC1(C)c2ccccc2N(c2ccc(-c3cc(-c4ccccc4)nc(-c4ccccc4)n3)cc2)c2ccccc21` yielded an emission maximum (in Cc1ccccc1) of 475.6 nm.

`Nc1cc([NH3+])cc(-c2nc3ccccc3s2)c1` gave an emission maximum (in O) of 493.5 nm.

For `CCC1(CC)c2cc(/C=C/c3ccc(/C=C/c4ccc5c(c4)C(CC)(CC)c4cc(N6c7ccccc7Sc7ccccc76)ccc4-5)cc3)ccc2-c2ccc(N3c4ccccc4Sc4ccccc43)cc21`, the emission maximum (in C1CCOC1) was 434 nm, the emission maximum (in CC#N) was 457 nm and the emission maximum (in CCCCCC) was 455 nm. For the same compound, the emission maximum (in Cc1ccccc1) was 462 nm and the emission maximum (in ClCCl) was 435 nm.

For `S=P1(c2ccccc2)c2cccc3c4c5ccccc5c5ccccc5c4c4ccc1n4c23` (centres undefined), the emission maximum (in ClCCl) was 493 nm.

`Cc1ccc(N2C(c3ccccc3NS(=O)(=O)c3ccc(C)cc3)=NC(c3ccccc3)C2c2ccccc2)cc1` (centres undefined) showed an emission maximum (in Cc1ccccc1) of 375 nm.

Work on `c1ccc(-n2c(-c3ccc(-c4ccc5c(c4)C4(c6ccccc6-5)c5ccccc5-c5ccc(-c6ccc(-c7nc8ccccc8n7-c7ccccc7)cc6)c6cccc4c56)cc3)nc3ccccc32)cc1` (centres undefined) yielded an emission maximum (in ClC(Cl)Cl) of 440 nm.

`COc1cc2oc(=O)c3c4ccc(N(C)C)cc4c4ccc5cccc6c(c1)c2c3c4c56` showed an emission maximum (in C1CCOC1) of 577 nm.

For `CC1=[N+]2C(=C(c3ccc(-c4c5ccccc5c(-c5ccccc5)c5ccccc45)cc3)c3ccc(C)n3[B-]2(F)F)C=C1`, the emission maximum (in CC#N) was 523 nm, the emission maximum (in CCCCCC) was 526 nm and the emission maximum (in CCO) was 526 nm. The emission maximum (in CN(C)C=O) was 529 nm, the emission maximum (in Cc1ccccc1) was 532 nm and the emission maximum (in ClCCl) was 526 nm.

With `COc1cccc(OC)c1-c1c2ccc(=[N+]3CCN(C(=O)OC(C)(C)C)CC3)cc-2oc2cc(N3CCN(C(=O)OC(C)(C)C)CC3)ccc12` the emission maximum (in ClCCl) was 580 nm.

Compound `Cc1ccc(CN2/C(=C/C=C3\CCCC(/C=C/C4=[N+](Cc5ccc(C)cc5)c5ccccc5C4(C)C)=C3Cl)C(C)(C)c3ccccc32)cc1` has an emission maximum (in CO) of 813 nm.

With `c1ccc(-c2nc(-c3ccccc3)nc(-c3ccc(-n4c5ccccc5c5cc(-c6ccc7c(c6)c6ccccc6n7-c6ccccc6)ccc54)cc3)n2)cc1` the emission maximum (in O=P(c1ccccc1)(c1ccccc1)c1ccccc1Oc1ccccc1P(=O)(c1ccccc1)c1ccccc1) was 458.07 nm.

`CN(C)c1ccc(C#Cc2cc(C#Cc3ccc(N(C)C)cc3)c3ccc4c(C#Cc5ccc(N(C)C)cc5)cc(C#Cc5ccc(N(C)C)cc5)c5ccc2c3c54)cc1` gave an emission maximum (in ClCCl) of 562 nm.

Work on `COC(=O)c1c2ccccc2nc2ccccc12` yielded an emission maximum (in C1CCOC1) of 418 nm, an emission maximum (in C1COCCO1) of 420 nm and an emission maximum (in CC#N) of 422 nm. For the same compound, the emission maximum (in CCCCCO) was 432 nm, the emission maximum (in CCCCO) was 431 nm and the emission maximum (in CCCO) was 430 nm. For the same compound, the emission maximum (in CCO) was 432 nm, the emission maximum (in CO) was 432 nm and the emission maximum (in COCCOC) was 420 nm. For the same compound, the emission maximum (in ClC(Cl)Cl) was 428 nm, the emission maximum (in ClCCl) was 422 nm and the emission maximum (in OCCO) was 418 nm.

Work on `NC1=N/C(=N\c2ccccn2)c2cccc3cccc1c23` yielded an emission maximum (in ClCCl) of 506 nm.

Compound `Cc1ccc2ccccc2c1` has an emission maximum (in C1CCCCC1) of 338.75 nm.

With `COc1ccc2c(c1)c1cc(OC)ccc1c1c2c2c(C(=O)NC(C)(C)C)ccc(C(=O)NC(C)(C)C)c2c2c3ccc(OC)cc3c3cc(OC)ccc3c21` the emission maximum (in ClCCl) was 498 nm.

Compound `Oc1ccc(C2=N[N+]3=Cc4c(ccc5ccccc45)O[B-]3(c3ccc([B-]45OC(c6ccc(O)cc6)=N[N+]4=Cc4c(ccc6ccccc46)O5)cc3)O2)cc1` (centres undefined) has an emission maximum (in C1CCOC1) of 477 nm.

In the case of `c1ccc2c(c1)nc1ccccn12`, the emission maximum (in CC#N) is reported as 414 nm.

`[O-]c1ccccc1-c1[nH+]c2c3ccccc3c3ccccc3c2o1` gave an emission maximum (in Cc1ccccc1) of 495 nm.

For `O=C(/C=C/c1cn(-c2ccccc2)nc1-c1ccccc1)c1c(O)c2ccccc2oc1=O`, the emission maximum (in C1CCOC1) was 489 nm, the emission maximum (in C1COCCO1) was 482 nm and the emission maximum (in CCO) was 507 nm. For the same compound, the emission maximum (in CCOC(C)=O) was 487 nm, the emission maximum (in CN(C)C=O) was 505 nm and the emission maximum (in CO) was 504 nm. For the same compound, the emission maximum (in CS(C)=O) was 510 nm, the emission maximum (in Cc1ccccc1) was 480 nm and the emission maximum (in ClC(Cl)Cl) was 493 nm. The emission maximum (in ClCCl) was 502 nm.

`C(#Cc1nc2ccccc2s1)c1ccc(N(c2ccc(C#Cc3nc4ccccc4s3)cc2)c2ccc(C#Cc3nc4ccccc4s3)cc2)cc1` showed an emission maximum (in Cc1ccccc1) of 434 nm.

Work on `C(=C\c1cc[n+](Cc2ccccc2)cc1)/c1cc[n+](Cc2ccccc2)cc1` yielded an emission maximum (in CC#N) of 426 nm.

In the case of `Cc1c(C)c(-c2ccc(-c3cccnc3)cc2)c(C)c(C)c1B(c1c(C)c(C)c(-c2ccc(-c3cccnc3)cc2)c(C)c1C)c1c(C)c(C)c(-c2ccc(-c3cccnc3)cc2)c(C)c1C`, the emission maximum (in ClCCl) is reported as 404 nm.

Work on `Oc1ccc2ccccc2c1-c1nc(-c2ccccc2)c2ccccn12` yielded an emission maximum (in C1CCCCC1) of 407 nm, an emission maximum (in CC#N) of 435 nm and an emission maximum (in CO) of 433 nm. For the same compound, the emission maximum (in ClCCl) was 467 nm and the emission maximum (in O) was 440 nm.

Work on `c1ccc(N(c2ccccc2)c2ccc(-c3cnc(-c4ccncc4)s3)cc2)cc1` yielded an emission maximum (in CO) of 566 nm.

Compound `C#CCN1C(=O)/C(=C/c2cc(OC(C)C)ccc2OC(C)C)N=C1C` has an emission maximum (in C1COCCO1) of 476 nm, an emission maximum (in CC#N) of 508 nm and an emission maximum (in CC(C)=O) of 487 nm. It also gave an emission maximum (in CCCCCC) of 440 nm, an emission maximum (in CCCCO) of 516 nm and an emission maximum (in CCCO) of 521 nm. It also gave an emission maximum (in CCO) of 523 nm, an emission maximum (in CCOC(C)=O) of 475 nm and an emission maximum (in CN(C)C=O) of 500 nm. It also gave an emission maximum (in CO) of 538 nm and an emission maximum (in CS(C)=O) of 510 nm.

Compound `Cc1ccc(-c2c3nc(c(-c4ccc(C)cc4)c4ccc([nH]4)c(-c4ccc(OC(=O)C(C)c5ccc(CC(C)C)cc5)cc4)c4nc(c(-c5ccc(C)cc5)c5ccc2[nH]5)C=C4)C=C3)cc1` (centres undefined) has an emission maximum (in ClCCl) of 652 nm.

Compound `COc1ccc(C#Cc2c3ccccc3c3n2[B-](F)(F)[N+]2=C(C)C=C(C)C2=C3)cc1` has an emission maximum (in CCCCCC) of 620 nm, an emission maximum (in CCCCCCCCO) of 629 nm and an emission maximum (in CCOC(C)=O) of 623 nm. For the same compound, the emission maximum (in CN(C)C=O) was 630 nm and the emission maximum (in ClCCl) was 633 nm.

For `CCC1=C(C)C2=C(c3cc(C4=C5C(C)=C(CC)C(C)=[N+]5[B-](F)(F)n5c(C)c(CC)c(C)c54)cc(C4=C5C(C)=C(CC)C(C)=[N+]5[B-](F)(F)n5c(C)c(CC)c(C)c54)c3)c3c(C)c(CC)c(C)n3[B-](F)(F)[N+]2=C1C`, the emission maximum (in C1CCOC1) was 567 nm, the emission maximum (in CC#N) was 556 nm and the emission maximum (in CN(C)C=O) was 570 nm. For the same compound, the emission maximum (in Cc1ccccc1) was 571 nm and the emission maximum (in ClC(Cl)Cl) was 571 nm.

In the case of `CCCCn1c2ccc3ccc4ccccc4c3c2c2c3c(ccc4ccccc43)ccc21`, the emission maximum (in ClCCl) is reported as 430 nm.

`C[n+]1ccc(/C=C/c2ccc(N(c3ccccc3)c3ccc(/C=C/c4cc[n+](C)cn4)cc3)cc2)nc1` gave an emission maximum (in CS(C)=O) of 720 nm and an emission maximum (in OCC(O)CO) of 685 nm.

Work on `COc1cc2oc(=O)c3c4ccc(C(=O)c5ccccc5)cc4c4ccc5cccc6c(c1)c2c3c4c56` yielded an emission maximum (in C1CCOC1) of 443 nm.

Compound `COc1c2ccccc2c(OC)c2c1c1ccc(F)cc1n2C` has an emission maximum (in C1CCCCC1) of 404 nm, an emission maximum (in CC#N) of 413 nm and an emission maximum (in CO) of 410 nm. The emission maximum (in ClCCl) was 411 nm.

Compound `CC1=C(c2ccccc2)C(C)=[N+]2C1=C(c1c(-c3ccccn3)nc3ccccn13)c1c(C)c(-c3ccccc3)c(C)n1[B-]2(F)F` has an emission maximum (in ClCCl) of 585 nm.

`CC(C)(C)c1ccc(-c2nc3c4ccc(-c5ccccc5)cc4c4cc(-c5ccccc5)ccc4c3n2-c2ccc(C(C)(C)C)cc2)cc1` showed an emission maximum (in C1CCOC1) of 389 nm, an emission maximum (in C1COCCO1) of 389 nm and an emission maximum (in CC#N) of 391 nm. It also gave an emission maximum (in CCCCCC) of 385 nm, an emission maximum (in CCCCOCCCC) of 386 nm and an emission maximum (in CCN(CC)CC) of 386 nm. For the same compound, the emission maximum (in CCOC(C)=O) was 388 nm, the emission maximum (in CCOCC) was 386 nm and the emission maximum (in CN(C)C=O) was 392 nm. For the same compound, the emission maximum (in Cc1ccccc1) was 388 nm, the emission maximum (in ClC=C(Cl)Cl) was 389 nm and the emission maximum (in ClCCl) was 390 nm.

`NCc1ccc2ccc3cccc4ccc1c2c34` showed an emission maximum (in C1CCCCC1) of 375 nm, an emission maximum (in CC#N) of 375 nm and an emission maximum (in CO) of 375 nm. For the same compound, the emission maximum (in ClC(Cl)Cl) was 376 nm.

Reference: the Deep4Chem optical property database
